Laboratory results as given in patent US9670227B2, “Thienopyrimidine derivatives, a process for their preparation and pharmaceutical compositions containing them” (LES LABORATOIRES SERVIER, priority 2013, dated 2017).
Like-named read-outs stand apart in the source and are kept apart here.

Legend:
[1] = system: H929 multiple myeloma tumour line; experiment: In vitro cytotoxicity, Microculture Tetrazolium Assay; type: cell-based; conditions: H929 cells, 48 hours exposure, MTT, read-out: IC50 (μM) MTT H929
Experimental: The cytotoxicity studies were carried out on the H929 multiple myeloma tumour line.
The cells are distributed onto microplates and exposed to the test compounds for 48 hours.

Mcl-1 protein = Mcl-1 protein (UniProtKB primary accession number: Q07820) (Homo sapiens, UniProt Q07820); experiment: Inhibition of Mcl-1 by fluorescence polarisation, Method 1; type: binding; conditions: for IC50: fluorescence polarisation, Method 1, or Method 2, read-out: IC50 (M) Mcl-1 FP
Chain of Mcl-1 protein (Q07820 whole entry): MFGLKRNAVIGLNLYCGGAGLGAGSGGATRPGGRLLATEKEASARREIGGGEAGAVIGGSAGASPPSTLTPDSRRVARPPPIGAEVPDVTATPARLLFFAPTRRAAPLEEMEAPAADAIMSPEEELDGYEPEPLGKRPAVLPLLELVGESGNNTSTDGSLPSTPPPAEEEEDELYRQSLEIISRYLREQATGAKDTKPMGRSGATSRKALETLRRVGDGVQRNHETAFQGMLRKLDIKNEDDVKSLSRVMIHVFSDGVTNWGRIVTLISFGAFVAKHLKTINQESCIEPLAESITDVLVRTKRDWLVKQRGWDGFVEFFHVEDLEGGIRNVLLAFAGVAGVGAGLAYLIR
How it was run: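 FP competition, 11-point compound titration in 5% final DMSO; protein and labelled probe at 5 nM and 1 nM final in HEPES/NaCl/Tween 20 buffer, pH 7.4.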

| Compound | IC50 [1] | percentage fluorescence polarisation inhibition, Mcl-1 FP (Mcl-1 protein; partial inhibitors, @ 10 uM test compound) | IC50 ([1]; Homo sapiens, NCI-H929, 48 h) | IC50 (Mcl-1 protein) |
| --- | --- | --- | --- | --- |
| CCOC(=O)[C@@H](Cc1ccccc1OCc1ccnc(OC)n1)Oc1ncnc2sc(-c3ccc(F)o3)c(-c3ccc(OCCN4CCN(C)CC4)c(Cl)c3C)c12 [Example 625, ethyl (2R)-2-{[(5Sa)-5-{3-chloro-2-methyl-4-[2-(4-methylpiperazin-1-yl)ethoxy]phenyl}-6-(5-fluorofuran-2-yl)thieno[2,3-d]pyrimidin-4-yl]oxy}-3-{2-[(2-methoxypyrimidin-4-yl)methoxy]phenyl}propanoate] | 0.62 µM | 74.85% @ 10 uM | – | – |
| COc1ccccc1CC(Oc1ncnc2sc(-c3ccc(F)cc3)c(-c3ccc(OCCN4CCN(C)CC4)c(Cl)c3C)c12)C(=O)OCOC(=O)C(C)(C)C [Example 643, {[(2R)-2-{[(5Sa)-5-{3-chloro-2-methyl-4-[2-(4-methylpiperazin-1-yl)ethoxy]phenyl}-6-(4-fluorophenyl)thieno[2,3-d]pyrimidin-4-yl]oxy}-3-(2-methoxyphenyl)propanoyl]oxy}methyl 2,2-dimethylpropanoate] | – | – | 0.303 µM | 6.6e-07 M |
| COc1ccccc1CC(Oc1ncnc2sc(-c3ccc(F)cc3)c(-c3ccc(OCCN4CCN(C)CC4)c(Cl)c3C)c12)C(=O)OCc1oc(=O)oc1C [Example 644, (5-methyl-2-oxo-1,3-dioxol-4-yl)methyl (2R)-2-{[(5Sa)-5-{3-chloro-2-methyl-4-[2-(4-methylpiperazin-1-yl)ethoxy]phenyl}-6-(4-fluorophenyl)thieno[2,3-d]pyrimidin-4-yl]oxy}-3-(2-methoxyphenyl)propanoate] | – | – | 0.248 µM | 3.7e-07 M |
| COc1ccccc1CC(Oc1ncnc2sc(-c3ccc(F)cc3)c(-c3ccc(OCCN4CCN(C)CC4)c(Br)c3C)c12)C(=O)O [Example 646, (2R)-2-{[(5Sa)-5-{3-bromo-2-methyl-4-[2-(4-methylpiperazin-1-yl)ethoxy]phenyl}-6-(4-fluorophenyl)thieno[2,3-d]pyrimidin-4-yl]oxy}-3-(2-methoxyphenyl)propanoic acid] | – | – | 0.298 µM | 2.1e-08 M |
| COc1ccccc1CC(Oc1ncnc2sc(-c3ccc(F)cc3)c(-c3ccc(OCCN4CCN(C)CC4)c(Cl)c3Cl)c12)C(=O)O [Example 647, (2R)-2-{[(5Sa)-5-{2,3-dichloro-4-[2-(4-methylpiperazin-1-yl)ethoxy]phenyl}-6-(4-fluorophenyl)thieno[2,3-d]pyrimidin-4-yl]oxy}-3-(2-methoxyphenyl)propanoic acid] | – | – | 0.498 µM | 2.3e-08 M |
| Cc1c(-c2c(-c3ccc(F)cc3)sc3ncnc(OC(Cc4ccccc4OCC4CCCO4)C(=O)O)c23)ccc(OCC2CCN(C)C2)c1Cl [Example 649, (2R)-2-{[(5Sa)-5-{3-chloro-2-methyl-4-[(1-methylpyrrolidin-3-yl)methoxy]phenyl}-6-(4-fluorophenyl)thieno[2,3-d]pyrimidin-4-yl]oxy}-3-{2-[(2R)-tetrahydrofuran-2-ylmethoxy]phenyl}propanoic acid] | – | – | 0.341 µM | 2.3e-08 M |
| COc1nccc(COc2ccccc2CC(Oc2ncnc3sc(-c4ccc(F)cc4)c(-c4cnc(OCCN5CCN(C)CC5)c(Cl)c4C)c23)C(=O)O)n1 [Example 651, (2R)-2-{[(5Ra)-5-{5-chloro-4-methyl-6-[2-(4-methylpiperazin-1-yl)ethoxy]pyridin-3-yl}-6-(4-fluorophenyl)thieno[2,3-d]pyrimidin-4-yl]oxy}-3-{2-[(2-methoxypyrimidin-4-yl)methoxy]phenyl}propanoic acid] | – | – | 0.282 µM | 6.8e-09 M |
| CCn1nccc1COc1ccccc1CC(Oc1ncnc2sc(-c3ccc(F)cc3)c(-c3cnc(OCCN4CCN(C)CC4)c(Cl)c3C)c12)C(=O)O [Example 652, (2R)-2-{[(5Ra)-5-{5-chloro-4-methyl-6-[2-(4-methylpiperazin-1-yl)ethoxy]pyridin-3-yl}-6-(4-fluorophenyl)thieno[2,3-d]pyrimidin-4-yl]oxy}-3-{2-[(1-ethyl-1H-pyrazol-5-yl)methoxy]phenyl}propanoic acid] | – | – | 0.059 µM | 4.7e-09 M |
| COCC#Cc1ccccc1CC(Oc1ncnc2sc(-c3ccc(F)cc3)c(-c3ccc(OCCN4CCN(C)CC4)c(Cl)c3C)c12)C(=O)O [Example 656, (2R)-2-{[(5Sa)-5-{3-chloro-2-methyl-4-[2-(4-methylpiperazin-1-yl)ethoxy]phenyl}-6-(4-fluorophenyl)thieno[2,3-d]pyrimidin-4-yl]oxy}-3-[2-(3-methoxyprop-1-yn-1-yl)phenyl]propanoic acid] | – | – | 0.523 µM | 6.1e-08 M |
| Cc1c(-c2c(-c3ccco3)sc3ncnc(OC(Cc4ccccc4OCc4ccnn4C)C(=O)O)c23)ccc(OCCN(C)C)c1Cl [Example 668, (2R)-2-{[(5Sa)-5-{3-chloro-4-[2-(dimethylamino)ethoxy]-2-methylphenyl}-6-(furan-2-yl)thieno[2,3-d]pyrimidin-4-yl]oxy}-3-{2-[(1-methyl-1H-pyrazol-5-yl)methoxy]phenyl}propanoic acid] | – | – | 0.13 µM | 1.1e-08 M |
| CCN1CCN(CCOc2ccc(-c3c(-c4ccco4)sc4ncnc(OC(Cc5ccccc5OCCOC)C(=O)O)c34)c(C)c2Cl)CC1 [Example 669, (2R)-2-{[(5Sa)-5-{3-chloro-4-[2-(4-ethylpiperazin-1-yl)ethoxy]-2-methylphenyl}-6-(furan-2-yl)thieno[2,3-d]pyrimidin-4-yl]oxy}-3-[2-(2-methoxyethoxy)phenyl]propanoic acid] | – | – | 0.108 µM | 4.9e-09 M |
| CCN1CCN(CCOc2ccc(-c3c(-c4ccco4)sc4ncnc(OC(Cc5ccccc5OCc5ccnc(OC)n5)C(=O)O)c34)c(C)c2Cl)CC1 [Example 670, (2R)-2-{[(5Sa)-5-{3-chloro-4-[2-(4-ethylpiperazin-1-yl)ethoxy]-2-methylphenyl}-6-(furan-2-yl)thieno[2,3-d]pyrimidin-4-yl]oxy}-3-{2-[(2-methoxypyrimidin-4-yl)methoxy]phenyl}propanoic acid] | – | – | 0.027 µM | 3.2e-09 M |
| COCCOc1ccccc1CC(Oc1ncnc2sc(-c3ccco3)c(-c3ccc(OCCN4CCN(C(C)C)CC4)c(Cl)c3C)c12)C(=O)O [Example 671, (2R)-2-{[(5Sa)-5-(3-chloro-2-methyl-4-{2-[4-(propan-2-yl)piperazin-1-yl]ethoxy}phenyl)-6-(furan-2-yl)thieno[2,3-d]pyrimidin-4-yl]oxy}-3-[2-(2-methoxyethoxy)phenyl]propanoic acid] | – | – | 0.107 µM | 6.9e-09 M |
| COc1nccc(COc2ccccc2CC(Oc2ncnc3sc(-c4ccco4)c(-c4ccc(OCCN5CCN(C(C)C)CC5)c(Cl)c4C)c23)C(=O)O)n1 [Example 672, (2R)-2-{[(5Sa)-5-(3-chloro-2-methyl-4-{2-[4-(propan-2-yl)piperazin-1-yl]ethoxy}phenyl)-6-(furan-2-yl)thieno[2,3-d]pyrimidin-4-yl]oxy}-3-{2-[(2-methoxypyrimidin-4-yl)methoxy]phenyl}propanoic acid] | – | – | 0.019 µM | 4.3e-09 M |
| Cc1c(OCCN2CCN(C)CC2)ccc(-c2c(-c3ccco3)sc3ncnc(OC(Cc4ccccc4OCC(F)(F)F)C(=O)O)c23)c1C [Example 673, (2R)-2-[(5Sa)-5-[2,3-dimethyl-4-[2-(4-methylpiperazin-1-yl)ethoxy]phenyl]-6-(2-furyl)thieno[2,3-d]pyrimidin-4-yl]oxy-3-[2-(2,2,2-trifluoroethoxy)phenyl]propanoic acid] | – | – | 0.576 µM | 1.1e-08 M |
